We go through 27 molecules from patent publication US7879835B2 (Korea Research Institute of Chemical Technology, priority 2004, dated 2011).

The test system of assay [1] is osteoclast (TRAP-positive multinuclear cell) formation. Nature of the assay: Inhibitory effect on osteoclast formation (TRAP staining). In kind it is cell-based, mice. To be noted: compared to control; for inhibition at 0.1 µM / inhibition at 0.3 µM / inhibition at 1 µM / inhibition at 3 µM: Mus musculus, Osteoclast, read-out: Osteoclast formation inhibitory effects (%); for inhibition at 0.1 µM: 0.1 μM (Table 4b); for inhibition at 0.3 µM: 0.3 μM (Table 4b); for inhibition at 1 µM: 1 μM (Table 4b); for inhibition at 3 µM: 3 μM (Table 4b); for Osteoclast formation inhibitory effects (%): 8 days culture with M-CSF and RANKL. How it is done: The inhibitory activities of the alpha-arylmethoxyacrylate derivatives prepared in the above Examples on the proliferation of osteoclasts were examined as follows.
First, a bone marrow sample containing osteoclast pregenitor cells was isolated as follows. After sacrificing 7 to 9 week-old female mice by cervical dislocation, femur and tibia were excised aseptically while removing soft tissues attached thereto, After cutting both ends of the long bones, 1 ml of an enzyme solution containing 0.1% collagenase (Gibco), 0.05% trypsin and 0.5 mM EDTA (Gibco) was injected into the bone marrow cavity at one end using a syringe with a 26-gauge needle, and the bone marrow was then collected. After stirring the recovered bone marrow for 30 min, the precipitated bone marrow cells were collected, and cultured in α-minimum essential medium (α-MEM) supplemented with 10% FBS for 24 hrs. Then, non-adherent cells, which are osteoclast pregenitors, were aliquoted onto a culture plate at a density of 2×10^5 cells per well, and cultured for 8 days in α-MEM supplemented with 20 ng/ml of macrophage-colony stimulating factor (M-CSF, Peprotech, USA), 30 ng/ml RANKL (Peprotech, USA), and 0.3, 1.0 or 3 μM of the compounds of the Examples. Control cells were cultured at the same condition except not adding the compounds of the Examples.
After cell culture for 8 days, the adherent cells were washed with PBS and fixed with citrate-acetate-formaldehyde for 5 min. The fixed cells were incubated at 37° C. for 1 hr in acetate buffer (pH 5.0) containing naphthol AS-BI phosphate, fast Garnet GBC solution and 7 mM tartrate buffer (pH 5.0) to conduct TRAP (tartrate-resistant acid phosphatase) staining.

The test system of a further assay is osteoclasts. As to the kind of experiment: Inhibitory effect on resorption activity of osteoclast (resorption pit area on calcium phosphate-coated plate). In kind it is cell-based, mice. Particulars: compared to control. On the procedure: After finishing culture, the plate was washed with distilled water, and 50 μl/well of 5% sodium hypochlorite was added to the plate. The plate was let alone for 5 min, washed again with distilled water to remove the adherent cells, and dried at room temperature. Then, the area of formed resorption pits was calculated by means of Image Pro Plus software (Media Cybernetics Ver. 3.0).

In the case of `CO/C=C(/C(=O)OC)c1ccccc1COc1ccc(NCC(C)C)cc1F` [Compound No. 425, (E)-methyl-2-[2-((4-(N-isobutylamino)-2-fluorophenoxy)methyl)phenyl]-3-methoxyacrylate], in assay [1], the inhibition at 0.1 µM came out at 0%, the inhibition at 0.3 µM stood at 51%, the inhibition at 1 µM was found to be 100% and the inhibition at 3 µM was 100%.
As to `CO/C=C(/C(=O)OC)c1ccccc1COc1ccc(C(C)F)cc1` (stereo not shown) [compound 170], the “Osteoclast formation inhibitory effects (%)” value in assay [1] (0.3 μM) turned out to be 81%; in assay [1] (1.0 μM), 100%; in assay [1] (3.0 μM), 100%. In addition, the figures for the “Reduction (%) of the resorption pit area of osteoclasts” value (shortened to “Reduction (%)”) in the assay with osteoclasts (0.3 uM), in the assay on osteoclasts (1 uM) and with osteoclasts (3 uM) were 0%, 100% and 100%, respectively.
`CO/C=C(/C(=O)OC)c1ccccc1COc1ccc(OC2CCCC2)cc1` [compound 172]: the “Osteoclast formation inhibitory effects (%)” value in assay [1] (0.3 μM) was 90%; in assay [1] (1.0 μM), 100%; in assay [1] (3.0 μM), 100%. The “Reduction (%)” value in the assay on osteoclasts (0.3 uM) was found to be 90%; with osteoclasts (1 uM) it was 100%; in the assay on osteoclasts (3 uM), 100%.
With `CO/C=C(/C(=O)OC)c1ccccc1COc1ccc(OCC(C)C)cc1` [compound 174], the “Osteoclast formation inhibitory effects (%)” value was found to be 35% in assay [1] (0.3 μM), 100% in assay [1] (1.0 μM) and 100% in assay [1] (3.0 μM). Besides, the “Reduction (%)” value in the assay on osteoclasts (0.3 uM), with osteoclasts (1 uM) and in the assay with osteoclasts (3 uM) was 100% each time.
As for `CO/C=C(/C(=O)OC)c1ccccc1COc1cccc(N2CCOCC2)n1` [compound 348], in assay [1], the inhibition at 0.3 µM came to 24%, the inhibition at 1 µM turned out to be 99% and the inhibition at 3 µM is 100%.
For `CO/C=C(/C(=O)OC)c1ccccc1COc1cccc(N2CCOCC2)c1` [compound 349], in assay [1], the inhibition at 0.1 µM came out at 2%, the inhibition at 0.3 µM came out at 53%, the inhibition at 1 µM worked out at 100% and the inhibition at 3 µM is 100%.
With `CO/C=C(/C(=O)OC)c1ccccc1COc1ccc(NCC(C)C)cc1` [compound 361], in assay [1], the inhibition at 1 µM came out at 95% and the inhibition at 3 µM came to 100%.
For `C=CCN(CC=C)c1ccc(OCc2ccccc2/C(=C\OC)C(=O)OC)cc1F` [compound 367] the same measures were 87% and 100%.
On the same counts, the results for `CO/C=C(/C(=O)OC)c1ccccc1COc1ccc(NCC2CC2)c(F)c1` [compound 372] are 91% and 100%.
In the case of `CO/C=C(/C(=O)OC)c1ccccc1COc1cccc(NC2CCCC2)c1` [compound 380], in assay [1], the inhibition at 0.3 µM came to 8%, the inhibition at 1 µM amounted to 51% and the inhibition at 3 µM was determined as 100%.
On the same counts, the results for `C=CCNc1cccc(OCc2ccccc2/C(=C\OC)C(=O)OC)c1` [compound 381] are 5%, 67% and 100%.
Take `CO/C=C(/C(=O)OC)c1ccccc1COc1cccc(NCCC(C)C)c1` [compound 383]: in assay [1], the inhibition at 0.3 µM was 6%, the inhibition at 1 µM was 94% and the inhibition at 3 µM was 100%.
On to `CO/C=C(/C(=O)OC)c1ccc(Cl)cc1COc1cccc(N2CCCCC2)c1` [compound 387], for which, in assay [1], the inhibition at 0.1 µM worked out at 1%, the inhibition at 0.3 µM came to 100%, the inhibition at 1 µM was 100% and the inhibition at 3 µM came to 100%.
As to `CO/C=C(/C(=O)OC)c1ccc(Cl)cc1COc1cccc(N(C)c2ccccc2)c1` [compound 390], in assay [1], the inhibition at 0.1 µM turned out to be 2%, the inhibition at 0.3 µM is 94%, the inhibition at 1 µM was 99% and the inhibition at 3 µM is 100%.
`CO/C=C(/C(=O)OC)c1ccccc1COc1cccc(N2CCCC2)c1` [compound 392]: in assay [1], the inhibition at 0.3 µM amounted to 2%, the inhibition at 1 µM came to 95% and the inhibition at 3 µM was found to be 100%.
As to `CO/C=C(/C(=O)OC)c1ccccc1COc1ccc(N2CCCC2)cn1` [compound 397], in assay [1], the inhibition at 0.3 µM is 22%, the inhibition at 1 µM came to 100% and the inhibition at 3 µM was determined as 100%.
`CO/C=C(/C(=O)OC)c1ccccc1COc1ccc(N(C)c2ccccc2)cc1` [compound 400]: in assay [1], the inhibition at 0.1 µM was determined as 0%, the inhibition at 0.3 µM amounted to 53%, the inhibition at 1 µM was 99% and the inhibition at 3 µM was 100%.
For `CO/C=C(/C(=O)OC)c1ccccc1COc1cccc(N2CCN(C(=O)OC(C)(C)C)CC2)c1` [compound 406] the same measures were 41%, 100%, 100% and 100%.
On the same counts, the results for `CO/C=C(/C(=O)OC)c1ccccc1COc1ccc(N2CCOCC2)cc1F` [compound 408] are 0%, 52%, 100% and 100%.
Consider `CO/C=C(/C(=O)OC)c1ccccc1COc1cccc(N2CCCCC2)n1` [compound 413], for which, in assay [1], the inhibition at 0.3 µM was 11%, the inhibition at 1 µM was 100% and the inhibition at 3 µM was 100%.
As to `CO/C=C(/C(=O)OC)c1ccccc1COc1cccc(N(C)c2ccccc2)n1` [compound 414], in assay [1], the inhibition at 0.3 µM was determined as 32%, the inhibition at 1 µM turned out to be 100% and the inhibition at 3 µM was 100%.
`CO/C=C(/C(=O)OC)c1ccccc1COc1ccc(N(C)c2ccccc2)c(F)c1` [compound 417]: in assay [1], the inhibition at 0.3 µM worked out at 24%, the inhibition at 1 µM was found to be 97% and the inhibition at 3 µM was determined as 100%.
For `CO/C=C(/C(=O)OC)c1ccccc1COc1ccc(N2CCCC2)c(F)c1` [compound 418] the same measures were 11%, 81% and 100%.
Turning to `C=CCN(CC=C)c1ccc(OCc2ccccc2/C(=C\OC)C(=O)OC)c(F)c1` [compound 421], in assay [1], the inhibition at 0.3 µM stood at 14%, the inhibition at 1 µM is 100% and the inhibition at 3 µM turned out to be 100%.
Regarding `CO/C=C(/C(=O)OC)c1ccccc1COc1ccc(N(CC2CC2)CC2CC2)cc1F` [compound 422], in assay [1], the inhibition at 0.1 µM came out at 11%, the inhibition at 0.3 µM amounted to 98%, the inhibition at 1 µM came out at 100% and the inhibition at 3 µM was determined as 100%.
Regarding `CO/C=C(/C(=O)OC)c1ccccc1COc1ccc(NCC2CC2)cc1F` [compound 423], in assay [1], the inhibition at 0.1 µM worked out at 0%, the inhibition at 0.3 µM stood at 51%, the inhibition at 1 µM was 100% and the inhibition at 3 µM is 100%.
In the case of `CO/C=C(/C(=O)OC)c1ccccc1COc1ccc(N(C)CC2CC2)cc1F` [compound 424], in assay [1], the inhibition at 0.1 µM came out at 0%, the inhibition at 0.3 µM stood at 92%, the inhibition at 1 µM was determined as 100% and the inhibition at 3 µM stood at 100%.
